Measured values as given in paper doi:10.1101/2022.07.21.500659v1 (bioRxiv, 2022).

Assays:
Type in all cases: in vivo, mouse
OVX BALB/c mice [1] = assay: Dynamic bone histomorphometry of tibia in OVX mice; settings: calcein labelling
OVX BALB/c mice [2] = settings: femur midshaft cortical cross-section, FTIRI, vs vehicle-treated OVX mice
OVX BALB/c mice [3] = assay: Circulating PTH, CTX-I and P1NP in OVX mice; settings: plasma at necropsy, vs OVX+vehicle
OVX BALB/c mice [4] = assay: Bone strength, 3-point bending of femur in OVX mice; settings: 8 weeks of treatment
OVX BALB/c mice [5] = assay: High resolution X-ray microCT of tibia in OVX mice; settings: 8 weeks, vs OVX+vehicle

SMILES: O=P(O)(O)C(O)(Cn1ccnc1)P(=O)(O)O [zoledronic acid]
- Active mineralizing surface (OVX BALB/c mice [1]): reduction
- Bone formation rate (OVX BALB/c mice [1]): reduction
- Enhancement of collagen maturity (OVX BALB/c mice [2]): None of these effects were observed
- Reduction of the degree of mineralization of the bone ECM (OVX BALB/c mice [2]): None of these effects were observed
- Change of circulating levels of P1NP (OVX BALB/c mice [3]): −25%
- Reduction of circulating levels of CTX-I (OVX BALB/c mice [3]): 24%
- Reduced deformation in load-deformation curves of OVX mice (OVX BALB/c mice [4]): not ameliorated
- Increase of cortical thickness (OVX BALB/c mice [5]; midshaft tibia): 6%
- Increase of trabeculae numbers (OVX BALB/c mice [5]; proximal tibia): 106%
- Increase of trabecular bone mass (OVX BALB/c mice [5]; proximal tibia): 85%
